Experimental findings from PMC10859961, “Ir(III) Half-Sandwich Photosensitizers with a π-Expansive Ligand for Efficient Anticancer Photodynamic Therapy” (Journal of Medicinal Chemistry, 2024) are described below.

Data set [1] can be described thus: Lipophilicity by the shake flask method. The class given is physicochemical. To be noted: 1-octanol/water; for logD9.2: carbonate–bicarbonate buffer pH 9.2. The method, then:
The partition coefficients of complexes 5, 6, 7, and 8 were determined by the standard “shake flask” method.[37],[84],[85] Octanol-saturated water (OSW) and water-saturated octanol (WSO) were prepared using analytical grade 1-octanol and ultrapure water. The complexes were dissolved in WSO and molar extinction coefficient was determined. Then, 2 mL of 25 μg/mL complex in WSO was shaken with 2 mL of OSW at 1500 rpm for 6 h at room temperature. To separate the phases, centrifugation was done at 4000 rpm for 10 min. The absorbance of WSO phase before and after shaking was measured. The absorbance of WSO before mixing minus the absorbance of WSO after mixing corresponds to the absorbance of the complex in OSW. The distribution coefficients (log Do/w) of the complexes were obtained from the ratio of the complexes present in 1-octanol and the aqueous phase (eq 3). Each experiment was repeated three times. To avoid protonation in complexes 5 and 6, a carbonate–bicarbonate buffer at pH 9.2 in OSW was used. [drawing 24] 3 where A1-oct corresponds to the absorbance of WSO phase and Atotal is the actual concentration of the WSO before shaking.

Another data set concerns PC-3. Nature of the data set: CyQUANT cell viability assay, dark or blue light. The class given is cell-based, human. To be noted: for IC50 / PI (IC50,dark/IC50,light): PC-3, CyQUANT; for IC50: 48 h; for PI (IC50,dark/IC50,light): blue light 460 nm; for PI/Dose: PC‐3, 460 nm, dose 24.1 J cm‐2, PI from CyQUANT. The method, then:
(§1) Cells were cultured in 96-well plates at a density of 3000 (A549), 2500 (HeLa), or 5000 (PC-3, 1BR.3.G, and MRC-5) cells per well in cell culture medium and allowed to attach for 24 h. Solutions of the complexes at different concentrations were prepared for cell treatments. In all cases, the solid compounds were weighed using an analytical balance (Mettler Toledo AX205DR) to ensure precise measurements. Subsequently, 5 mM solutions were prepared using DMSO. Solutions were then diluted in water to reach a concentration of 1 mM and then, aliquots were taken and diluted in culture medium to obtain solutions ranging from 0 to 50 μM. […] The cells were treated with these solutions in dark conditions or following the photoactivation protocol (see below). 48 h later the treatments were removed, and cells were washed with phosphate-buffered saline (PBS).
(§2) Initially, the effect of the complexes on the cell viability was determined by the 3-(4,5-dimethylthiazol-2-yl)-2,5-diphenyltetrazolium bromide (MTT) assay.[147] The cells were incubated for 2 h with 100 μL of culture medium together with 10 μL of MTT (Sigma-Aldrich) at 0.5 mg/mL. After discarding the medium, DMSO was added to each well to dissolve the purple formazan crystals. The absorbance of each well was determined on a Multiscan Plate Reader (Synergy 4, Biotek, Winooski) at a wavelength of 570 nm. Cell viability was also assessed using the CyQUANT Direct Cell Proliferation Assay (Thermo Fisher Scientific), following the manufacturer’s instructions. Briefly, after the treatments, the cells were washed with PBS, and an equal volume of culture medium and CyQUANT mix was added to each well. The plates were then incubated for 1 h at 37 °C. Subsequently, the fluorescence intensity was bottom read using a Multiscan Plate Reader (Synergy 4, Biotek, Winooski) with excitation and emission filters of 485 and 528 nm, respectively. In both assays, at least three replicates were measured for each treatment. The concentration that reduces the cell viability by 50% (IC50) was established using the Gen5 software (BioTek). Three independent experiments were carried out for each compound. […] The phototoxicity index (PI = IC50,dark/IC50,light) was determined.
(§3) To assess the photodynamic activity of the complexes, cells were incubated with the complexes for 4 h to enable their intracellular accumulation. The cells were then irradiated with light with a wavelength of 460 nm (blue), 530 nm (green), or 655 nm (red) for 1 h using a LED system (LuxLight) with an effective power of 6.7 mW cm^–2, which provides a total light dose of 24.1 J cm^–2. The LED system was positioned at 25 mm from the cell culture plates.

The subject of a further data set is 1BR.3.G. Nature of the data set: CyQUANT cell viability assay, dark or blue light. The following applies: for IC50: 48 h; for PI (IC50,dark/IC50,light): blue light 460 nm. It is filed as cell-based, human. How it is done:
as §1, §2, §3

Another data set deals with A549. Nature of the data set: CyQUANT cell viability assay, dark or blue light. The class given is cell-based, human. To be noted: for PI/Dose / IC50 / PI (IC50,dark/IC50,light): A549; for PI/Dose: 460 nm, dose 24.1 J cm‐2, PI from CyQUANT; for IC50: 48 h; for IC50 / PI (IC50,dark/IC50,light) / photoselectivity: IC50,light in A549 lower than IC50,dark in MRC-5 / phototoxicity indexes: CyQUANT; for PI (IC50,dark/IC50,light): blue light 460 nm; for photoselectivity: IC50,light in A549 lower than IC50,dark in MRC-5: A549 blue light vs nonirradiated MRC-5 lung fibroblasts; for phototoxicity indexes: three cancer cell lines (A549, HeLa, PC-3), blue light. The method, then: as §1, §2, §3

The next data set has as its system MRC-5. The data set is described as follows: CyQUANT cell viability assay, dark or blue light. It is filed as cell-based, human. The following applies: for PI (IC50,dark/IC50,light): MRC-5, blue light 460 nm; for IC50: 48 h. The method, then:
as §1, §2, §3

Another data set has as its system HeLa. The data set is described as follows: CyQUANT cell viability assay, dark or blue light. The class given is cell-based, human. To be noted: for IC50: 48 h; for IC50 / PI (IC50,dark/IC50,light): CyQUANT; for PI (IC50,dark/IC50,light): blue light 460 nm. The method, then:
as §1, §2, §3

The test system of data set [2] is porcine red blood cells (RBC). The data set is described as follows: Hemolytic activity (hemoglobin release). The class given is cell-based. To be noted: dark, 1 hour. The method, then:
The hemolytic activities of the complexes were determined by measuring hemoglobin release from porcine red blood cells (RBC). First, fresh porcine blood commercially obtained was diluted to 5% v/v in PBS solution and washed three times with PBS by centrifugation at 1000 rcf for 10 min. Then, RBC suspension (150 μL) was mixed with 150 μL of each complex at concentrations ranging from 1 to 50 μM. A solution of 0.2% Triton X-100 in PBS was used as positive control to induce complete hemolysis. PBS alone was used as negative control. Samples were incubated at 37 °C for 1 h in an orbital shaker (50 rpm) and then centrifuged at 3500 rcf for 10 min. 80 μL aliquots of the supernatant were transferred to a 96-well plate and diluted with 80 μL of Milli-Q water. Hemolysis was evaluated by measuring the absorbance of the samples at 540 nm with a Synergy 4 plate reader (BioTek, Winooski). The percentage of hemolysis (H) was calculated using eq 4: [drawing 25] 4 where As is the absorbance for a given sample, An is the absorbance for the negative control, and Ap is the absorbance for the positive control. Each sample was tested in triplicate.

The mark [3] stands for this setting: blue light 460 nm 1 h (24.1 J cm^–2), read-out: IC50,light.
The mark [4] stands for this setting: 1BR.3.G nonmalignant fibroblasts, dark, read-out: IC50,dark.
Where [5] appears, read: 1BR.3.G, blue light 460 nm 1 h (24.1 J cm^–2), read-out: IC50,light.
[6] abbreviates: MRC-5, blue light 460 nm 1 h (24.1 J cm^–2), read-out: IC50,light.
Setting [7] is: MRC-5 nonmalignant lung fibroblasts, dark, read-out: IC50,dark.

Each structure is given as a SMILES string. Where two headings read alike, the source gives them in different places.

What is called logP is a log measure of how a compound divides between an organic and an aqueous phase. In the case of `Cc1c(C)c(C)[c-](C)c1C.F[B-](F)(F)F.c1ccc(Cn2cc[n+]([Ir]3[c]4cccc5c6nc7ccccc7nc6c6ccc[n+]3c6c45)c2)cc1` [complex 7, [(η^5-C5Me5)Ir(bzIm)(pbpz)]BF4], in data set [1], the log partition coefficient (logP) was determined as 1.65 ± 0.16.
By IC50 is commonly meant the concentration that gives 50% inhibition. For the compound `Cc1c(C)c(C)[c-](C)c1C.F[B-](F)(F)F.c1ccc(Cn2cc[n+]([Ir]3[c]4cccc5c6nc7cc8ccccc8cc7nc6c6ccc[n+]3c6c45)c2)cc1` [complex 8, [(η^5-C5Me5)Ir(bzIm)(pbpn)]BF4], the half-maximal inhibitory concentration (IC50) with PC-3 (setting [3]) was 0.0005 ± 0.0003 µM; in the data set on PC-3 (dark, read-out: IC50,dark) it was 0.64 ± 0.1 µM; in the data set with 1BR.3.G (setting [4]), 0.5 ± 0.04 µM; in the data set on 1BR.3.G (setting [5]) it was 0.0005 ± 0.0002 µM; in the data set with A549 (setting [3]), 0.0004 ± 0.0003 µM; in the data set on A549 (dark, read-out: IC50,dark), 0.5 ± 0.2 µM. Besides, the half-maximal inhibitory concentration (IC50) in the data set on MRC-5 (setting [6]) worked out at 0.0008 ± 0.0001 µM; in the data set with MRC-5 (setting [7]) it was 0.68 ± 0.1 µM; in the data set on HeLa (setting [3]), 0.0008 ± 0.0002 µM; in the data set with HeLa (dark, read-out: IC50,dark) it was 0.51 ± 0.1 µM. The “PI (IC50,dark/IC50,light)” value came to 1179 with PC-3; 942 with 1BR.3.G (1BR.3.G); 1260 in the data set on A549; 863 in the data set on MRC-5; 622 with HeLa. Moreover, the PI/Dose in the data set on PC-3 was 48.9; in the data set on A549, 52.3. Further, the “photoselectivity: IC50,light in A549 lower than IC50,dark in MRC-5” value in the data set with A549 was found to be 1700 times. Besides, the phototoxicity indexes result in the data set with A549 is recorded as “approximately 1000”. In addition, the logP in data set [1] was 1.13 ± 0.03. The Hemolytic activity in data set [2] (1 μM) is given as 0.2%; in data set [2] (5 μM), 1.0%; in data set [2] (10 μM), 3.2%; in data set [2] (25 μM), 16.3%.
As to `Cc1c(C)c(C)[c-](C)c1C.F[B-](F)(F)F.c1ccc2cc3nc4c5ccc[n+]6c5c5[c](cccc5c4nc3cc2c1)[Ir]6[n+]1cc[nH]c1` [complex 4, [(η^5-C5Me5)Ir(Im)(pbpn)]BF4], the concentration for half-maximal inhibition (IC50) worked out at 0.0011 ± 0.0006 µM with PC-3 (setting [3]); 2.28 ± 0.7 µM in the data set on PC-3 (dark, read-out: IC50,dark); 2 ± 0.4 µM in the data set on 1BR.3.G (setting [4]); 0.0008 ± 0.0004 µM in the data set with 1BR.3.G (setting [5]); 0.001 ± 0.0004 µM in the data set with A549 (setting [3]); 2.1 ± 0.6 µM in the data set on A549 (dark, read-out: IC50,dark). The IC50 in the data set on MRC-5 (setting [6]) stood at 0.0031 ± 0.001 µM; in the data set with MRC-5 (setting [7]), 2.48 ± 0.2 µM; in the data set on HeLa (setting [3]), 0.0042 ± 0.0009 µM; in the data set on HeLa (dark, read-out: IC50,dark), 1.55 ± 0.3 µM. In addition, the “PI (IC50,dark/IC50,light)” value with PC-3 stood at 2022; with 1BR.3.G (1BR.3.G) it was 2451; with A549, 2034; with MRC-5, 790; in the data set on HeLa it was 370. The PI/Dose with PC-3 (listed as 4) is given as 84; in the data set with PC-3 (listed as Complex 4), 83.9; with A549 (listed as 4), 84; in the data set on A549 (listed as Complex 4), 84.4. Moreover, in the data set with A549, the “photoselectivity: IC50,light in A549 lower than IC50,dark in MRC-5” value is given as 2480 times. In the data set on A549, the phototoxicity indexes entry is “approximately 1000”. Further, the Hemolytic activity in data set [2] (1 μM) amounted to 0%; in data set [2] (5 μM) it was 0%; in data set [2] (10 μM) it was 0.5%; in data set [2] (25 μM) it was 6.7%.
As to `Cc1c(C)c(C)[c-](C)c1C.F[B-](F)(F)F.c1ccc2cc3nc4c5ccc[n+]6c5c5[c](cccc5c4nc3cc2c1)[Ir]6[n+]1ccn(CCN2CCCCC2)c1` [complex 6, [(η^5-C5Me5) Ir(Imepip)(pbpn)]BF4], the IC50 was 0.0012 ± 0.001 µM in the data set with PC-3 (setting [3]); 1.16 ± 0.16 µM in the data set on PC-3 (dark, read-out: IC50,dark); 0.57 ± 0.06 µM in the data set with 1BR.3.G (setting [4]); 0.0009 ± 0.0003 µM in the data set on 1BR.3.G (setting [5]); 0.0004 ± 0.0002 µM with A549 (setting [3]); 0.33 ± 0.2 µM in the data set on A549 (dark, read-out: IC50,dark). Further, the IC50 in the data set with MRC-5 (setting [6]) was found to be 0.0008 ± 0.0002 µM; with MRC-5 (setting [7]) it was 0.7 ± 0.08 µM; in the data set with HeLa (setting [3]), 0.0007 ± 0.0002 µM; in the data set with HeLa (dark, read-out: IC50,dark), 0.7 ± 0.27 µM. Moreover, the “PI (IC50,dark/IC50,light)” value in the data set on PC-3 stood at 961; with 1BR.3.G (1BR.3.G), 644; in the data set on A549, 911; with MRC-5, 929; in the data set on HeLa, 1031. The “photoselectivity: IC50,light in A549 lower than IC50,dark in MRC-5” value in the data set with A549 stood at 1750 times. Further, the phototoxicity indexes entry with A549 is reported as “approximately 1000”. Besides, the PI/Dose in the data set with HeLa (460 nm, dose 24.1 J cm‐2, PI from CyQUANT) is 42.7. Further, the logD9.2 in data set [1] is recorded as 1.39 ± 0.07. The Hemolytic activity came out at 0% in data set [2] (1 μM), 0% in data set [2] (5 μM), 1.0% in data set [2] (10 μM) and 10.7% in data set [2] (25 μM).
Regarding `Cc1c(C)c(C)[c-](C)c1C.F[B-](F)(F)F.c1ccc2nc3c4ccc[n+]5c4c4[c](cccc4c3nc2c1)[Ir]5[n+]1ccn(CCN2CCCCC2)c1` [complex 5, [(η^5-C5Me5)Ir(Imepip)(pbpz)]BF4], the logD9.2 in data set [1] was 1.10 ± 0.10.
